Laboratory results as given in paper PMC9343605, “Structural insights into ligand recognition and selectivity of somatostatin receptors” (Cell Research, 2022).
Each block holds one molecule with its values, some of them ahead of it.

How the values were obtained:
SSTR2 [1] = target: T1, SSTR2 (Homo sapiens, UniProt P30874, F294N); assay: cAMP accumulation assay (agonist-induced inhibition of forskolin-stimulated cAMP), SSTR2, HEK293F; format: cell-based; conditions: HEK293F; SSTR2 mutant F294^7.35N; mean ± SEM; read-out: Span;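 also: transiently transfected cells exposed to 2 µM forskolin and a ligand concentration series for 40 min at room temperature in IBMX-containing HBSS, then cAMP quantified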
T1 construct: expressed in transfected cells; host or cells: HEK293F
Procedure: (§1) HEK293F cells were transiently transfected with WT or mutant SSTR2/SSTR4 using transfection reagent (PEI MAX 2000, Polysciences) and incubated at 37 °C in 5% CO2. Forty-eight hours after transfection, cells were centrifuged and resuspended in stimulation buffer (Hanks’ balanced salt solution (HBSS) supplemented with 5 mM HEPES, 0.5 mM IBMX and 0.1% (w/v) bovine serum albumin (BSA), pH 7.4) to a density of 200,000 cells/mL and added to 384-well white plates (PerkinElmer, 1000 cells/well). cAMP accumulation was measured by a LANCE Ultra cAMP kit (PerkinElmer) according to the manufacturer’s instructions. In brief, transfected cells were incubated for 40 min in stimulation buffer with 2.5 μL forskolin (SSTR2: 2 μM; SSTR4: 4 μM) and gradient concentration of ligand at RT. The reactions were stopped by addition of lysis buffer containing 5 μL Eu-cAMP tracer and 5 μL ULight-anti-cAMP. Plates were then incubated for 60 min at RT and time-resolved FRET signals were measured at 620 nm and 665 nm by an EnVision multilabel plate reader (PerkinElmer). Data were analyzed in GraphPad PRISM 8 and all values were normalized to the WT for each ligand. All outcomes were repeated at least three times.
(§2) aMutants represent that mutations were introduced separately into the WT receptors and
(§3) transiently expressed in HEK 293F cells.
(§4) bThe EC50 ratio was shown as EC50(mutant)/EC50(WT), indicating the shift between the WT
(§5) and mutant curves, reflecting the effect of the mutations on receptor signaling.
(§6) cData are shown as mean ± S.E.M. from at least three independent experiments
(§7) performed in technical triplicate. One-way ANOVA was performed followed by
(§8) Dunnett’s post-test and compared with WT. The P value was defined as: *P<0.05;
(§9) d The span is defined as the window between the maximal agonists response (Emax) and
(§10) e Sample size; the number of independent experiments performed in technical triplicate.
(§11) f Receptor expression level of HEK 293F cells was determined independently by flow
(§12) cytometry with anti-FLAG antibody and shown as per cent compared to the WT.

SSTR2 [2] = target: T2, SSTR2 (Homo sapiens, UniProt P30874, K291A); assay: as above; format: cell-based; conditions: HEK293F; SSTR2 mutant K291^7.32A; mean ± SEM; read-out: Span
T2 construct: expressed in transfected cells; host or cells: HEK293F
Procedure: as §1, §2, §3, §4, §5, §6, §7, §8, §9, §10, §11, §12

SSTR2 [3] = target: T3, SSTR2 (Homo sapiens, UniProt P30874, Y205W); assay: as above; format: cell-based; conditions: HEK293F; SSTR2 mutant Y205^5.35W; mean ± SEM; read-out: Span
T3 construct: expressed in transfected cells; host or cells: HEK293F
Procedure: as §1, §2, §3, §4, §5, §6, §7, §8, §9, §10, §11, §12

SSTR2 [4] = target: T4, SSTR2 (Homo sapiens, UniProt P30874, I284A); assay: as above; format: cell-based; conditions: HEK293F; SSTR2 mutant I284^ECL3A; mean ± SEM; read-out: Span
T4 construct: expressed in transfected cells; host or cells: HEK293F
Procedure: as §1, §2, §3, §4, §5, §6, §7, §8, §9, §10, §11, §12

SSTR2 [5] = target: T5, SSTR2 (Homo sapiens, UniProt P30874, S192A); assay: as above; format: cell-based; conditions: HEK293F; SSTR2 mutant S192^ECL2A; mean ± SEM; read-out: Span
T5 construct: expressed in transfected cells; host or cells: HEK293F
Procedure: as §1, §2, §3, §4, §5, §6, §7, §8, §9, §10, §11, §12

SSTR2 [6] = target: T6, SSTR2 (Homo sapiens, UniProt P30874, V298A); assay: as above; format: cell-based; conditions: HEK293F; SSTR2 mutant V298^7.39A; mean ± SEM; read-out: Span
T6 construct: expressed in transfected cells; host or cells: HEK293F
Procedure: as §1, §2, §3, §4, §5, §6, §7, §8, §9, §10, §11, §12

SSTR2 [7] = target: T7, SSTR2 (Homo sapiens, UniProt P30874, N276A); assay: as above; format: cell-based; conditions: HEK293F; SSTR2 mutant N276^6.55A; mean ± SEM; read-out: Span
T7 construct: expressed in transfected cells; host or cells: HEK293F
Procedure: as §1, §2, §3, §4, §5, §6, §7, §8, §9, §10, §11, §12

SSTR2 [8] = target: T8, SSTR2 (Homo sapiens, UniProt P30874, P286A); assay: as above; format: cell-based; conditions: HEK293F; SSTR2 mutant P286^ECL3A; mean ± SEM; read-out: Span
T8 construct: expressed in transfected cells; host or cells: HEK293F
Procedure: as §1, §2, §3, §4, §5, §6, §7, §8, §9, §10, §11, §12

SSTR2 [9] = target: T9, SSTR2 (Homo sapiens, UniProt P30874, F208A); assay: as above; format: cell-based; conditions: HEK293F; SSTR2 mutant F208^5.38A; mean ± SEM; read-out: Span
T9 construct: expressed in transfected cells; host or cells: HEK293F
Procedure: as §1, §2, §3, §4, §5, §6, §7, §8, §9, §10, §11, §12

SSTR2 [10] = target: T10, SSTR2 (Homo sapiens, UniProt P30874, Q102A); assay: Whole cell binding assay, SSTR2, competition with 125I-Tyr11-SST14, CHO-K1; conditions: for Emax: CHO-K1, read-out: Span;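 as to all read-outs here: Cell-bound radioactivity in lysed CHO-K1 cells read by scintillation counting, each mutation introduced singly into the WT receptor, at least three independent experiments run in technical triplicate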
Procedure: (§13) For SSTR2 and SSTR4, CHO-K1 cells were cultured in F12 medium with 10% FBS and seeded at a density of 30,000 cells/well in Isoplate-96 plates (PerkinElmer). Twenty-four hours after transfection with the WT or mutant SSTR2/SSTR4, CHO-K1 cells were washed twice and incubated with blocking buffer (F12 supplemented with 25 mM HEPES and 0.1% (w/v) BSA, pH 7.4) for 2 h at 37 °C. […] Following incubation, cells were washed three times with ice-cold PBS and lysed by 50 μL lysis buffer (PBS supplemented with 20 mM Tris-HCl, 1% Triton X-100, pH 7.4). The radioactivity was subsequently counted (counts/min, CPM) in a scintillation counter (MicroBeta[2] Plate Counter, PerkinElmer) using a scintillation cocktail (OptiPhaseSuperMix, PerkinElmer). Data were analyzed by nonlinear regression using GraphPad PRISM 8.
(§14) aMutants represent that all mutations were introduced separately into the WT receptors
and expressed in CHO K1 cells.
(§15) bThe IC50 ratio was shown as IC50(mutant)/IC50(WT), indicating the shift between the WT
(§16) and mutant curves, reflecting the effect of the mutations on ligand binding.
(§17) cData are shown as mean ± S.E.M. form at least three independent experiments
as §7
(§18) Dunnett’s post-test and compared with WT.
as §9, §10

SSTR2 [11] = target: T11, SSTR2 (Homo sapiens, UniProt P30874); assay: as above; conditions: for Emax: CHO-K1, read-out: Span
Procedure: as §13, §14
and expressed in CHO K1 cells.
as §15, §16, §17, §7, §18, §9, §10

SSTR2 [12] = target: SSTR2 (Homo sapiens, UniProt P30874, Y205A); assay: as above; conditions: CHO-K1, read-out: Span
Procedure: as §13, §14
and expressed in CHO K1 cells.
as §15, §16, §17, §7, §18, §9, §10

SSTR2 [13] = target: T12, SSTR2 (Homo sapiens, UniProt P30874, Y302A); assay: as above; conditions: CHO-K1, read-out: Span
Procedure: as §13, §14
and expressed in CHO K1 cells.
as §15, §16, §17, §7, §18, §9, §10

SSTR2 [14] = target: T13, SSTR2 (Homo sapiens, UniProt P30874, D122A); assay: as above; conditions: CHO-K1, read-out: Span
Procedure: as §13, §14
and expressed in CHO K1 cells.
as §15, §16, §17, §7, §18, §9, §10

SSTR2 [15] = target: T14, SSTR2 (Homo sapiens, UniProt P30874, F272A); assay: as above; conditions: for Emax: CHO-K1, read-out: Span
Procedure: as §13, §14
and expressed in CHO K1 cells.
as §15, §16, §17, §7, §18, §9, §10

SSTR2 [16] = target: SSTR2 (Homo sapiens, UniProt P30874, F275A); assay: as above; conditions: for Emax: CHO-K1, read-out: Span
Procedure: as §13, §14
and expressed in CHO K1 cells.
as §15, §16, §17, §7, §18, §9, §10

SSTR2 [17] = target: T15, SSTR2 (Homo sapiens, UniProt P30874, Q126A); assay: as above; conditions: for Emax: CHO-K1, read-out: Span
Procedure: as §13, §14
and expressed in CHO K1 cells.
as §15, §16, §17, §7, §18, §9, §10

SSTR2 [18] = target: T16, SSTR2 (Homo sapiens, UniProt P30874, F294A); assay: as above; conditions: for Emax: CHO-K1, read-out: Span
Procedure: as §13, §14
and expressed in CHO K1 cells.
as §15, §16, §17, §7, §18, §9, §10

SSTR2 [19] = target: T10, SSTR2; assay: cAMP accumulation assay (agonist-induced inhibition of forskolin-stimulated cAMP), SSTR2, HEK293F; format: cell-based; set-up: expressed in transfected cells; host or cells: HEK293F; conditions: HEK293F; SSTR2 mutant Q102^2.63A; mean ± SEM; read-out: Span;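 also: transiently transfected cells exposed to 2 µM forskolin and a ligand concentration series for 40 min at room temperature in IBMX-containing HBSS, then cAMP quantified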
Procedure: as §1, §2, §3, §4, §5, §6, §7, §8, §9, §10, §11, §12

SSTR2 [20] = target: SSTR2 (Homo sapiens, UniProt P30874, T212A); assay: as above; format: cell-based; set-up: expressed in transfected cells; host or cells: HEK293F; conditions: HEK293F; SSTR2 mutant T212^5.42A; mean ± SEM; read-out: Span
Procedure: as §1, §2, §3, §4, §5, §6, §7, §8, §9, §10, §11, §12

SSTR2 [21] = target: T11, SSTR2; assay: as above; format: cell-based; set-up: expressed in transfected cells; host or cells: HEK293F; conditions: HEK293F; WT SSTR2; window between Emax and vehicle; mean ± SEM; read-out: Span
Procedure: as §1, §2, §3, §4, §5, §6, §7, §8, §9, §10, §11, §12

SSTR2 [22] = target: SSTR2 (Homo sapiens, UniProt P30874, T194A); assay: as above; format: cell-based; set-up: expressed in transfected cells; host or cells: HEK293F; conditions: HEK293F; SSTR2 mutant T194^ECL2A; mean ± SEM; read-out: Span
Procedure: as §1, §2, §3, §4, §5, §6, §7, §8, §9, §10, §11, §12

SSTR2 [23] = target: T12, SSTR2; assay: as above; format: cell-based; set-up: expressed in transfected cells; host or cells: HEK293F; conditions: HEK293F; SSTR2 mutant Y302^7.43A; mean ± SEM; read-out: Span
Procedure: as §1, §2, §3, §4, §5, §6, §7, §8, §9, §10, §11, §12

SSTR2 [24] = target: T13, SSTR2; assay: as above; format: cell-based; set-up: expressed in transfected cells; host or cells: HEK293F; conditions: HEK293F; SSTR2 mutant D122^3.32A; mean ± SEM; read-out: Span
Procedure: as §1, §2, §3, §4, §5, §6, §7, §8, §9, §10, §11, §12

SSTR2 [25] = target: T14, SSTR2; assay: as above; format: cell-based; set-up: expressed in transfected cells; host or cells: HEK293F; conditions: HEK293F; SSTR2 mutant F272^6.51A; mean ± SEM; read-out: Span
Procedure: as §1, §2, §3, §4, §5, §6, §7, §8, §9, §10, §11, §12

SSTR2 [26] = target: T15, SSTR2; assay: as above; format: cell-based; set-up: expressed in transfected cells; host or cells: HEK293F; conditions: HEK293F; SSTR2 mutant Q126^3.36A; mean ± SEM; read-out: Span
Procedure: as §1, §2, §3, §4, §5, §6, §7, §8, §9, §10, §11, §12

SSTR2 [27] = target: T16, SSTR2; assay: as above; format: cell-based; set-up: expressed in transfected cells; host or cells: HEK293F; conditions: HEK293F; SSTR2 mutant F294^7.35A; mean ± SEM; read-out: Span
Procedure: as §1, §2, §3, §4, §5, §6, §7, §8, §9, §10, §11, §12

SSTR2 [28] = target: SSTR2 (Homo sapiens, UniProt P30874, S42A); assay: Whole cell binding assay, SSTR2, competition with 125I-Tyr11-SST14, CHO-K1;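 also: Cell-bound radioactivity in lysed CHO-K1 cells read by scintillation counting, each mutation introduced singly into the WT receptor, at least three independent experiments run in technical triplicate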
Procedure: as §13, §14
and expressed in CHO K1 cells.
as §15, §16, §17, §7, §18, §9, §10

SSTR2 [29] = target: SSTR2 (Homo sapiens, UniProt P30874, N43A); assay: as above
Procedure: as §13, §14
and expressed in CHO K1 cells.
as §15, §16, §17, §7, §18, §9, §10

SSTR2 [30] = target: SSTR2 (Homo sapiens, UniProt P30874, D295A); assay: as above
Sequence of SSTR2 (Homo sapiens, UniProt P30874, D295A) (P30874 whole entry D295A): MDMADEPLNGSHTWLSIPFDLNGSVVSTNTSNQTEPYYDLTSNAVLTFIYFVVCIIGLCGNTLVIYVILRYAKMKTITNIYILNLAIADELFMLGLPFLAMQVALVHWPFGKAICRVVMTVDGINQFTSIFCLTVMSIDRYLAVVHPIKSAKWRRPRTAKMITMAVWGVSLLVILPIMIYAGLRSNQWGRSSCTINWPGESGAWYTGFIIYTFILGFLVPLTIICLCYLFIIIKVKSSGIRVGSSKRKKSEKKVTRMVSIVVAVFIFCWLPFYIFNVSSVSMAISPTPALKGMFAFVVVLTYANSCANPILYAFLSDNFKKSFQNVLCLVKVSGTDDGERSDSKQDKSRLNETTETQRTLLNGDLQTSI
Procedure: as §13, §14
and expressed in CHO K1 cells.
as §15, §16, §17, §7, §18, §9, §10

T12 sequence (P30874 whole entry Y302A): as the sequence (P30874 whole entry D295A) above, with A295D, Y302A counted along it
T13 sequence (P30874 whole entry D122A): as the sequence (P30874 whole entry D295A) above, with D122A, A295D counted along it
T16 sequence (P30874 whole entry F294A): as the sequence (P30874 whole entry D295A) above, with F294A, A295D counted along it
T15 sequence (P30874 whole entry Q126A): as the sequence (P30874 whole entry D295A) above, with Q126A, A295D counted along it
Sequence of SSTR2 (Homo sapiens, UniProt P30874, F275A) (P30874 whole entry F275A): as the sequence (P30874 whole entry D295A) above, with F275A, A295D counted along it
T14 sequence (P30874 whole entry F272A): as the sequence (P30874 whole entry D295A) above, with F272A, A295D counted along it
T10 sequence (P30874 whole entry Q102A): as the sequence (P30874 whole entry D295A) above, with Q102A, A295D counted along it
T11 sequence (P30874 whole entry): as the sequence (P30874 whole entry D295A) above, with A295D counted along it
Sequence of SSTR2 (Homo sapiens, UniProt P30874, N43A) (P30874 whole entry N43A): as the sequence (P30874 whole entry D295A) above, with N43A, A295D counted along it
Sequence of SSTR2 (Homo sapiens, UniProt P30874, S42A) (P30874 whole entry S42A): as the sequence (P30874 whole entry D295A) above, with S42A, A295D counted along it
Sequence of SSTR2 (Homo sapiens, UniProt P30874, Y205A) (P30874 whole entry Y205A): as the sequence (P30874 whole entry D295A) above, with Y205A, A295D counted along it
T4 sequence (P30874 whole entry I284A): as the sequence (P30874 whole entry D295A) above, with I284A, A295D counted along it
T3 sequence (P30874 whole entry Y205W): as the sequence (P30874 whole entry D295A) above, with Y205W, A295D counted along it
T6 sequence (P30874 whole entry V298A): as the sequence (P30874 whole entry D295A) above, with A295D, V298A counted along it
T1 sequence (P30874 whole entry F294N): as the sequence (P30874 whole entry D295A) above, with F294N, A295D counted along it
T2 sequence (P30874 whole entry K291A): as the sequence (P30874 whole entry D295A) above, with K291A, A295D counted along it
T9 sequence (P30874 whole entry F208A): as the sequence (P30874 whole entry D295A) above, with F208A, A295D counted along it
T8 sequence (P30874 whole entry P286A): as the sequence (P30874 whole entry D295A) above, with P286A, A295D counted along it
Sequence of SSTR2 (Homo sapiens, UniProt P30874, T194A) (P30874 whole entry T194A): as the sequence (P30874 whole entry D295A) above, with T194A, A295D counted along it
T7 sequence (P30874 whole entry N276A): as the sequence (P30874 whole entry D295A) above, with N276A, A295D counted along it
Sequence of SSTR2 (Homo sapiens, UniProt P30874, T212A) (P30874 whole entry T212A): as the sequence (P30874 whole entry D295A) above, with T212A, A295D counted along it
T5 sequence (P30874 whole entry S192A): as the sequence (P30874 whole entry D295A) above, with S192A, A295D counted along it

Emax (SSTR2 [1]): 47 ± 9%
Emax (SSTR2 [2]): 103 ± 8%
Emax (SSTR2 [3]): 97 ± 10%
Emax (SSTR2 [4]): 58 ± 8%
Emax (SSTR2 [5]): 146 ± 13%
Emax (SSTR2 [6]): 127 ± 4%
Emax (SSTR2 [7]): 75 ± 9%
Emax (SSTR2 [8]): 72 ± 8%
Emax (SSTR2 [9]): 128 ± 8%
Emax (SSTR2 [10]): 27 ± 4%
Emax (SSTR2 [11]): 100 ± 7%
Emax (SSTR2 [12]): 60 ± 5%
Emax (SSTR2 [13]): 18 ± 7%
Emax (SSTR2 [14]): 16 ± 7%
Emax (SSTR2 [15]): 26 ± 6%
Emax (SSTR2 [16]): 51 ± 4%
Emax (SSTR2 [17]): 16 ± 8%
Emax (SSTR2 [18]): 28 ± 9%
Emax (SSTR2 [19]): 30 ± 5%
Emax (SSTR2 [20]): 90 ± 10%
Emax (SSTR2 [21]): 100 ± 4%
Emax (SSTR2 [22]): 125 ± 7%
Emax (SSTR2 [23]): 147 ± 12%
Emax (SSTR2 [24]): 16 ± 4%
Emax (SSTR2 [25]): 134 ± 17%
Emax (SSTR2 [26]): 101 ± 7%
Emax (SSTR2 [27]): 123 ± 10%
SMILES: C[C@@H](O)[C@@H]1NC(=O)[C@H](CCCCN)NC(=O)[C@@H](Cc2c[nH]c3ccccc23)NC(=O)[C@H](Cc2ccccc2)NC(=O)[C@@H](NC(=O)[C@H](N)Cc2ccccc2)CSSC[C@@H](C(=O)N[C@H](CO)[C@@H](C)O)NC1=O [Octreotide]

SMILES: CC(=O)N[C@@H](Cc1ccc([N+](=O)[O-])cc1)C(=O)N[C@@H]1CSSC[C@@H](C(=O)N[C@H](Cc2ccc(O)cc2)C(N)=O)NC(=O)[C@H]([C@@H](C)O)NC(=O)[C@H](CCCCN)NC(=O)[C@@H](Cc2c[nH]c3ccccc23)NC(=O)[C@H](Cc2ccc(O)cc2)NC1=O [CYN 154806]
IC50 (SSTR2 [10]): 20.4 nM
Emax (SSTR2 [10]): 24 ± 5%
IC50 (SSTR2 [11]): 4.37 nM
Emax (SSTR2 [11]): 100 ± 6%
Emax (SSTR2 [13]): 15 ± 5%
IC50 (SSTR2 [28]): 2.75 nM
Emax (SSTR2 [28]; CHO-K1, read-out: Span): 145 ± 9%
Emax (SSTR2 [14]): 20 ± 2%
IC50 (SSTR2 [15]): 23.4 nM
Emax (SSTR2 [15]): 21 ± 6%
IC50 (SSTR2 [16]): 21.9 nM
Emax (SSTR2 [16]): 69 ± 7%
IC50 (SSTR2 [29]): 8.13 nM
Emax (SSTR2 [29]; CHO-K1, read-out: Span): 96 ± 8%
IC50 (SSTR2 [30]): 3.55 nM
Emax (SSTR2 [30]; CHO-K1, read-out: Span): 62 ± 6%
IC50 (SSTR2 [17]): 135 nM
Emax (SSTR2 [17]): 25 ± 4%
IC50 (SSTR2 [18]): 21.9 nM
Emax (SSTR2 [18]): 36 ± 6%
